Here are results for three compounds from patent US20030207432A1, “Remedies for intractable wound” (Fujisawa Pharmaceutical Co., Ltd.,, priority 1999, published 2003).

“Also recorded” adds a separate entry of the source.

For data set [1], the system named is foot ulcer induced by acetic acid. The experiment in a line: Foot ulcer induced by acetic acid, normal rats (applied FR136706). Type of data set: in vivo, rat. The conditions noted are these: for Ulcer area after administration of acetic acid / Swelling score after administration of acetic acid: normal rat, 0.2% in PEG400 applied, average, n=6; for Swelling score after administration of acetic acid: score 0-3. The protocol: (§1) The action of the compound (applied) in accordance with this invention on a foot ulcer induced by acetic acid was examined by using normal and diabetic rats. Diabetes was induced in each of a seven-week-old male SD rats by intravenously administrating 60 mg/kg streptozotocin (STZ) to its tail. Fourteen days after the administration of STZ, 20 μl glacial acetic acid was administered into the skin of the left foot instep of each of the diabetic rats and control rats of the same age while anesthetized using ether, thereby causing necrosis at the portion. In the case when the necrotic cuticle of the skin remained two days after the necrosis, the cuticle was removed surgically. Then, the administration of FR136706 (0.2% solution in PEG (polyethylene glycol) 400) was started (50 μl to the affected portion). PEG400 was administered to the control group in a similar way. In a period between two days and 25 days after the administration of acetic acid, swelling scores (0: no swelling, 1: slight swelling, 2: intermediate swelling, 3: significant swelling) was checked visually, and the major axis length and the minor axis length of each ulcer was measured with vernier calipers. The area of each ulcer was calculated from the major axis length and the minor axis length thereof.

Data set [2] has the same test system. The experiment in a line: Diabetic rat foot ulcer curing action (STZ diabetic rats, foot ulcer induced by acetic acid). The data set is classed as in vivo. As to conditions: for Ulcer area after administration of acetic acid / Swelling score after administration of acetic acid: diabetic rat, 0.2% in PEG400 applied, average, n=6; for Swelling score after administration of acetic acid: score 0-3. The protocol: as §1

The conditions of data set [3]: qualitative, by solvent; known properties from earlier filings; cited from earlier work.
Where [4] appears, read: normal rats, 0.2% solution in PEG400 applied.
[5] abbreviates: diabetic rats, 0.2% solution in PEG400 applied.

For `CC(C)C(NC(=O)[C@@H]1CCCN1C(=O)[C@@H](NC(=O)c1ccc(C(=O)NCC(=O)[O-])cc1)C(C)C)C(=O)C(F)(F)F.[Na+]` (mixture of isomers) [FR136706, Sodium salt of 3(RS)-[[4-(carboxymethylaminocarbonyl)phenylcarbonyl]-L-valyl-L-prolyl]amino-1,1,1-trifluoro-4-methyl-2-oxopentane], the “Ulcer area after administration of acetic acid” value (shortened to “Ulcer area after administration”) in data set [1] (after 2 days) came to 58.37 mm^2; in data set [1] (after 8 days), 71.42 mm^2; in data set [1] (after 11 days), 53.21 mm^2; in data set [1] (after 15 days), 18.32 mm^2; in data set [1] (after 18 days), 0.69 mm^2; in data set [1] (after 22 days), 0.00 mm^2. Besides, the “Ulcer area after administration” value is 0.00 mm^2 in data set [1] (after 25 days); 69.17 mm^2 in data set [2] (after 2 days); 91.77 mm^2 in data set [2] (after 8 days); 72.38 mm^2 in data set [2] (after 11 days); 41.00 mm^2 in data set [2] (after 15 days); 16.10 mm^2 in data set [2] (after 18 days). In addition, the “Ulcer area after administration” value in data set [2] (after 22 days) is reported as 12.08 mm^2; in data set [2] (after 25 days) it was 6.99 mm^2. The “Swelling score after administration of acetic acid” value (shortened to “Swelling score after administration”) in data set [1] (after 2 days) stood at 2.5; in data set [1] (after 8 days) it was 2.0; in data set [1] (after 11 days), 1.5; in data set [1] (after 15 days) it was 1.0; in data set [1] (after 18 days) it was 0.5; in data set [1] (after 22 days), 0.0. Also, the “Swelling score after administration” value in data set [1] (after 25 days) is reported as 0.0; in data set [2] (after 2 days), 2.2; in data set [2] (after 8 days), 2.8; in data set [2] (after 11 days), 2.5; in data set [2] (after 15 days), 1.5; in data set [2] (after 18 days), 1.5. The “Swelling score after administration” value in data set [2] (after 22 days) worked out at 1.2; in data set [2] (after 25 days, & significant at 5% vs PEG400 diabetic group) it was 0.7. In addition, the entries for the “Effect on contraction of ulcer areas (in words)” value in data set [1] (setting [4]) and in data set [2] (setting [5]) were “did not act on the normal rats” and “tended to promote the contraction of the ulcer areas of the diabetic rats”, respectively. The entries for the “Effect on recovery of swelling scores (in words)” value in data set [1] (setting [4]) and in data set [2] (setting [5]) were “did not act on the normal rats” and “promoted the recovery of the diabetic rats”, respectively.
Consider “Dipotassium salt of the WS7622A disulfate ester”, for which the Solubility result in data set [3] was “soluble: water, methanol; also recorded: insoluble: chloroform, n-hexane”.
“Disodium salt of WS7622A disulfate ester”: the Solubility result in data set [3] is “soluble: water, methanol; also recorded: insoluble: chloroform, n-hexane”.
